Experimental data taken from publication PMC6328172, “5-HT2 receptor binding, functional activity and selectivity in N-benzyltryptamines” (PLoS ONE, 2019).
Values joined by “and” are separate entries in the source; they are usually repeats but may differ in a detail not shown here. Equal entries are not always repeated. Structures can show the parent of a compound that is named as a salt. Where two headings read alike, the source gives them in different places.

Columns and labels:
head twitch response [1] = assay: Mouse head twitch response (HTR) assay (literature); format: in vivo; conditions: from the HTR ED50 values
5-HT2A receptor [2] = conditions: described by Nichols; cited from earlier work
head twitch response [3] = conditions: cited from earlier work
human 5-HT2A receptor [4] = target: T1, human 5-HT2A receptor (Homo sapiens, UniProt P28223); assay: Competition binding to the human 5-HT2A receptor ([3H]ketanserin, CHO-5-HT2A membranes)
T1 construct: expressed in transfected cells; host or cells: CHO (CHO-5-HT2A cell line)

human 5-HT2C receptor [5] = target: T2, human 5-HT2C receptor (Homo sapiens, UniProt P28335); assay: Competition binding to the human 5-HT2C receptor ([3H]mesulergine, HeLa-5-HT2C membranes)
T2 construct: expressed in transfected cells; host or cells: HeLa (HeLa-5-HT2C cell line)
T2 sequence (P28335 33-458): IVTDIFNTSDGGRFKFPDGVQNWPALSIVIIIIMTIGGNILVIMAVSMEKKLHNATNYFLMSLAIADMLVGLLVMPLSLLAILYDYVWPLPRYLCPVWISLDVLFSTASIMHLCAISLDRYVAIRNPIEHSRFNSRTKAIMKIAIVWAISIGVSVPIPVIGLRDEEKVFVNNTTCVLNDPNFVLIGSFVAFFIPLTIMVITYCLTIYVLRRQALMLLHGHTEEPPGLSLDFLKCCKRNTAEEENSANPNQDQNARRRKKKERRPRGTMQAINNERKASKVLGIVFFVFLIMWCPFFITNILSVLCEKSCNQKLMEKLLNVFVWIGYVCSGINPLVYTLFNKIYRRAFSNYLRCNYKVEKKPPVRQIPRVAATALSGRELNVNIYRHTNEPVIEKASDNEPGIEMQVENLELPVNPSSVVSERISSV

human 5-HT2A receptor [6] = target: T1, human 5-HT2A receptor; assay: Ca2+ mobilization in CHO h5-HT2A cells; format: cell-based
human 5-HT2C receptor [7] = target: T2, human 5-HT2C receptor; assay: Ca2+ mobilization in HeLa h5-HT2C cells; format: cell-based
5-HT2A receptor [8] = conditions: described by Nichols; cited from earlier work; remark: listed apart in the source
human 5-HT2B receptor = human 5-HT2B receptor (Homo sapiens, UniProt P41595); assay: Competition binding to the human 5-HT2B receptor ([3H]LSD, CHO-5-HT2B membranes)
5-HT2A receptor [9] = target: 5-HT2A receptor; parameters: method as in PMID 27216487; conditions: reported affinity; cited from earlier work
5-HT2C receptor [10] = target: 5-HT2C receptor; parameters: method as in PMID 27216487; conditions: reported affinity; cited from earlier work
5-HT2A receptors = conditions: cited from earlier work
5-HT2C receptor [11] = conditions: cited from earlier work
[12] = relative efficacy, % of response to 5-HT

T1 sequence (P28223 whole entry): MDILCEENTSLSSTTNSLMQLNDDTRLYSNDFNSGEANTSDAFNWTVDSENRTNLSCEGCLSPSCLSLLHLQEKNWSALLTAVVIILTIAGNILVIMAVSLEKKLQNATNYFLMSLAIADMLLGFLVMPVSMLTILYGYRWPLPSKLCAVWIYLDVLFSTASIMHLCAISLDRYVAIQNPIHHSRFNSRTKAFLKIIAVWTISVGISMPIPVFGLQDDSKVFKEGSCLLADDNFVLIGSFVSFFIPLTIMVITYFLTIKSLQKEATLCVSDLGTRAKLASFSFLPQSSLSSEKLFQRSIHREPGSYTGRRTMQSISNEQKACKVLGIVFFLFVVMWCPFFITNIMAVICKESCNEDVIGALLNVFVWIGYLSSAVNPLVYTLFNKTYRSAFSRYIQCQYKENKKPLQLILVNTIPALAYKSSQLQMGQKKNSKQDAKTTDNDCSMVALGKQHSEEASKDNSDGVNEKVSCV
Sequence of human 5-HT2B receptor (P41595 whole entry): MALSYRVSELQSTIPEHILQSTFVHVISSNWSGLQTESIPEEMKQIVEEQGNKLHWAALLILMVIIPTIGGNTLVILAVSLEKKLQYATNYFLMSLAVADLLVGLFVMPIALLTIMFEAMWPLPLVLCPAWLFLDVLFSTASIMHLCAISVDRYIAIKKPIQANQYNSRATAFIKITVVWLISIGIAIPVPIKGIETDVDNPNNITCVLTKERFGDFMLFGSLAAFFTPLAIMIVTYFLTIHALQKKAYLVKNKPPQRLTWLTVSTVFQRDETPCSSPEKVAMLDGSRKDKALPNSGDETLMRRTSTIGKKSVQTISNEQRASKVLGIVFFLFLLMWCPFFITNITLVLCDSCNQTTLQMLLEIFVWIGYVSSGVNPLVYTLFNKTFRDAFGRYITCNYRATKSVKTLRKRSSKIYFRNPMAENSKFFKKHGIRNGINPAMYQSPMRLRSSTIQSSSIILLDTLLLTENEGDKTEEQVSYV

In the case of `Oc1c(Br)cccc1CNCCc1c[nH]c2ccccc12` (as salt: succinate) [Compound 21, N-(3-Bromo-2-hydroxybenzyl)-[2-(1H-indol-3-yl)ethyl]amine], the melting point is reported as 141 to 142 °C.

With `Oc1c(F)cccc1CNCCc1c[nH]c2ccccc12` (as salt: succinate) [Compound 22, N-(3-Fluoro-2-hydroxybenzyl)-[2-(1H-indol-3-yl)ethyl]amine] the melting point was 151 to 152 °C.

`Oc1cccc(F)c1CNCCc1c[nH]c2ccccc12` (as salt: succinate) [Compound 34, N-(6-Fluoro-2-hydroxybenzyl)-[2-(1H-indol-3-yl)ethyl]amine] showed a melting point of 159 to 161 °C.

In the case of `COc1cc(CCNCc2ccccc2OC)c(OC)cc1I` [Compound 25I-NBOMe, 4-iodo-2,5-dimethoxy-N-(2-methoxybenzyl)phenethylamine, reference compound], the “fold higher in vivo potency (HTR) than compound 38” value (head twitch response [1]) is given as 40 fold, the Ki (5-HT2A receptor [2]) is given as 0.00052 µM and the “ED50 in the mouse head twitch response (HTR) assay” value (head twitch response [3]) is given as 0.078 mg/kg.

For `COc1ccc2[nH]cc(CCNCc3ccccc3OC)c2c1` [Compound 38, N-(2-Methoxybenzyl)-[2-(5-methoxy-1H-indol-3-il)ethyl]amine], the “Selectivity 5-HT2A/2C (binding)” value (human 5-HT2A receptor [4]; from Ki values, Table 1) was 1.55, the Ki (human 5-HT2A receptor [4]; human receptor, [3H]ketanserin displacement, no unit in the table, nM, read-out: 5-HT2A Ki (in parentheses) (converted)) was 44.7 nM and the “Selectivity 5-HT2C/2A (binding, in parentheses)” value (human 5-HT2C receptor [5]; from Ki values, Table 1) was 0.65. The Ki (human 5-HT2C receptor [5]; human receptor, [3H]mesulergine displacement, no unit in the table, nM, read-out: 5-HT2C Ki (in parentheses) (converted)) was 69.2 nM, the “5-HT2A pEC50” value (human 5-HT2A receptor [6]; Ca2+ mobilization, pEC50 ± SEM) was 8.70 ± 0.20 and the EC50 (human 5-HT2A receptor [6]; Ca2+ mobilization, no unit in the table, nM, read-out: 5-HT2A EC50 (in parentheses) (converted)) was 2 nM and 1.99 nM. For the same compound, the “Selectivity 5-HT2A/2C (functional)” value (human 5-HT2A receptor [6]; from EC50 values, Table 2) was 1.91, the “5-HT2A % Emax” value (human 5-HT2A receptor [6]; [12]) was 83.66 ± 3.42% and the Emax (human 5-HT2A receptor [6]; [12]) was 84%. For the same compound, the EC50 (human 5-HT2C receptor [7]; Ca2+ mobilization, no unit in the table, nM, read-out: 5-HT2C EC50 (in parentheses) (converted)) was 3.8 nM, the Emax (human 5-HT2C receptor [7]; HeLa, read-out: 5-HT2C % Emax) was 88.7 ± 4.22% and the “Selectivity 5-HT2C/2A (functional, in parentheses)” value (human 5-HT2C receptor [7]; from EC50 values, Table 2) was 0.53. The Ki (5-HT2A receptor [2]) was 0.0166 µM, the “5-HT2A Emax” value (5-HT2A receptor [8]) was 81% and the EC50 (5-HT2A receptor [8]) was 0.0019 µM. For the same compound, the “ED50 in the mouse head twitch response (HTR) assay” value (head twitch response [3]) was 3.15 mg/kg and the Ki (human 5-HT2B receptor) was 0.0159 µM.

For `CC(C)N(CCc1c[nH]c2ccccc12)C(C)C` [N,N-diisopropyltryptamine], the Ki (5-HT2A receptor [9]) is listed as 1.2 µM and the Ki (5-HT2C receptor [10]) is listed as 6.5 µM.

For `CN(C)CCc1c[nH]c2ccccc12` [N,N-dimethyltryptamine], the Ki (5-HT2A receptor [9]) is listed as 0.237 µM and the Ki (5-HT2C receptor [10]) is listed as 0.424 µM.

In the case of `COc1ccc2[nH]cc(CCN(C)C(C)C)c2c1` [N-isopropyl-N-methyl-5-methoxytryptamine], the Ki (5-HT2A receptor [9]) is listed as 0.165 µM and the Ki (5-HT2C receptor [10]) is listed as 1.3 µM.

In the case of `C[C@H]1CNCCc2ccc(Cl)cc21` [lorcaserin, 1(R)-8-chloro-1-methyl.2,3,4,5-tetrahydro-(1H)-3-benzazepine], the “pEC50(2A)” value (5-HT2A receptors; Fig 6) is listed as 6.8, the “efficacy at 5-HT2A receptors” value (5-HT2A receptors; partial agonist) is listed as “about 70%” and the “agonist character at 5-HT2C (in words)” value (5-HT2C receptor [11]) is listed as “full 5-HT2C agonist”.
